Assay [1] addresses MEF2D and HDAC4 protein interactions (Homo sapiens (Human), UniProt Q14814). The assay is described as follows: Mammalian two-hybrid assay (GAL4-MEF2D / HDAC4-VP16 luciferase reporter). The note with it: for Relative Activity, I / Inhibition of MEF2D/HDAC4 interactions (in words) / IC50: HeLa cells; for Relative Activity, I: test compound 10 μM overnight, ratio X/Y versus DMSO control, expressed in percentile, low = strong inhibition; for Group: class by relative activity I at 10 μM; for Inhibition of MEF2D/HDAC4 interactions (in words): two-hybrid assay; for IC50: concentration when X/Y equals 50. It is filed as cell-based. From the text: Detection of MEF2D and HDAC4 interactions. In this mammalian two-hybrid assay, HDAC4 and MEF2D proteins were used as representative members of their respective protein families because the protein-protein interactions involved in the recruitment of class IIa HDACs by MEF2 were highly conserved. Two separate DNA constructs were made with MEF2D fused with the GAL4 DNA binding domain (GAL4-MEF2D) and with the MEF2-binding motif of HDAC4 (AA 155-220) fused with the viral transactivator VP-16 (HDAC4-VP16) (FIG. 1). Human epithelial carcinoma cells (HeLa) were co-transfected with the two DNA constructs (GAL4-MEF2D and HDAC4-VP16) and a reporter plasmid (Gal4Luc). […] MEF2D and HDAC4 protein interactions were detected as a result of the GAL4-MEF2D and HDAC4-VP16 protein complex binding a DNA promoter on the reporter plasmid (Gal4Luc) and driving cellular expression of a luciferase gene (FIG. 1). The measured luciferase protein signal was proportional to the amount of MEF2D and HDAC4 protein interactions occurring with the cell.
The relatively stronger signal from the GAL4VP16 positive control construct was probably due to the fact that the activation domain of VP16 was covalently linked to GAL4, whereas in the mammalian two-hybrid assay it was recruited by protein-protein interactions between HDAC4 and MEF2 (FIG. 2). This assay permitted the detection of the interactions between HDAC4 and MEF2D with minimal interference from endogenous factors. The HDAC4 fragment lacked the catalytic domain so that the deacetylase activity was excluded from the assay.
Detection of inhibition of MEF2D and HDAC4 interactions. Next, the assay was used to test whether the compounds could disrupt the interactions between MEF2D and HDAC4. After co-expressing the GAL4-MEF2D and HDAC4-VP16 DNA constructs and reporter plasmid, the HeLa cells were treated with a test compound (10 μM) overnight. Cells transfected with the positive control GAL4VP16 fusion construct and reporter plasmid were also treated with the test compound (10 μM) overnight. As another control, DMSO was added (but kept below 0.2% V/V) to cells transfected with the positive GAL4VP16 fusion construct or the GAL4-MEF2D and HDAC4-VP16 DNA constructs. A luciferase assay was performed as described above according to the manufacturer's protocol (Promega). The luciferase response was normalized against the Renilla Luciferase as an internal control.
The relative activity and IC50 calculations. […] The relative activity, I, was the ratio of former to later, i.e. X/Y, expressed in percentile. […] The IC50 was the concentration of the compounds when X/Y equals 50.
For orientation: In a reporter assay the amount or activity of a reporter protein is the signal.

The next assay relates to Nalm-6 leukemia cells. The assay is described as follows: Inhibition of Nalm-6 leukemia cell growth (CellTiter-Glo). It is filed as cell-based. Conditions: 72 hours treatment; for IC50: Homo sapiens, NALM-6. A general note: Cellular ATP, detected with luciferase, serves as a proxy for viable cell number.

MEF2D and HDAC4 protein interactions, sequence (Q14814 whole entry, species assumed, the tested form may be a part): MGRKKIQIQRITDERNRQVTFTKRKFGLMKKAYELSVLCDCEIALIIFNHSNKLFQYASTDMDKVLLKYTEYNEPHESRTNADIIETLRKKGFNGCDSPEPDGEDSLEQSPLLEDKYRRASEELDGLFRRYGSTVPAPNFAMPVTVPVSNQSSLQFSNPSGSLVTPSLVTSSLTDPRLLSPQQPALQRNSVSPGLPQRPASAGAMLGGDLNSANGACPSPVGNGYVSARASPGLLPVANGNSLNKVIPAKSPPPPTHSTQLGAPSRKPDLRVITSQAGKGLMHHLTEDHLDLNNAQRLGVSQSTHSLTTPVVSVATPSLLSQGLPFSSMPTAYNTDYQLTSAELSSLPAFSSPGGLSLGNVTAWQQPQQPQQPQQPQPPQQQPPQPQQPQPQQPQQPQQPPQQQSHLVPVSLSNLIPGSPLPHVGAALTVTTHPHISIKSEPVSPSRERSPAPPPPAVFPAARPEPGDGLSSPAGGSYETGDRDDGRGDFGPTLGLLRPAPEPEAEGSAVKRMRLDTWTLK
Experimental for Nalm-6 leukemia cells: Treatment of cells. Nalm-6 leukemia cells were grown to the logarithmic growth phase and seeded into 24-well plates. Plated cells were incubated at 37° C. in a 5% CO2 humidified incubator for 24 hours and treated with various concentrations of compounds. Treated cells were further incubated for 72 hours and then were examined for cell proliferation. Cell proliferation was determined using the CellTiter-Glo Luminescence Cell Viability assay (Promega Corporation, Madison, Wis.) according to the manufacturer's protocol. The calculated inhibition rate was determined with the following formula: Inhibition rate (%)=(1−Luminescence of experimental group/Luminescence of control group)×100. The 1050 was the calculated concentration of a compound needed to inhibit half of the maximum cell growth (equivalent to cell growth in control group) based on the corresponding dose-response curve under the described experimental conditions.

What is called IC50 is the concentration that inhibits the measured activity by half. Turning to `Nc1ccccc1NC(=O)CCCCCC(=O)NCc1cccnc1` [CC1, N^1-(2-aminophenyl)-N^7-(pyridin-3-ylmethyl)heptanediamide], in assay [1], the “Relative Activity, I” value stood at 79.2; the Group entry was “C (C (50 < I < 100 included))”; the “Inhibition of MEF2D/HDAC4 interactions (in words)” value is given as “mild inhibitory effect”. Further, in the assay on Nalm-6 leukemia cells, the “Nalm-6 leukemia cell growth inhibition (in words)” value is reported as “mild inhibitory effect” and the concentration for half-maximal inhibition (IC50) was above 10 µM.

Take `Nc1ccccc1NC(=O)CCCCCC(=O)Nc1cccc(O)c1` [CC2, N^1-(2-aminophenyl)-N^7-(3-hydroxyphenyl)heptanediamide]: in assay [1], the “Relative Activity, I” value is recorded as 4.7; the half-maximal inhibitory concentration (IC50) is 0.09 µM; the Group entry is recorded as “A (A (I < 22 included))”. For the same molecule, the IC50 with Nalm-6 leukemia cells came to 1.46 µM.

On to `Nc1ccccc1NC(=O)CCCCCC(=O)Nc1ccc(O)cc1` [CC3, N^1-(2-aminophenyl)-N^7-(4-hydroxyphenyl)heptanediamide], for which, in assay [1], the “Relative Activity, I” value is given as 5.4; the IC50 worked out at 0.1 µM; the Group entry is “A (A (I < 22 included))”. Besides, the concentration for half-maximal inhibition (IC50) in the assay on Nalm-6 leukemia cells turned out to be 2.61 µM.

Regarding `Nc1ccncc1NC(=O)CCCCCC(=O)Nc1cccc(Br)c1` [CC4, N^1-(4-aminopyridin-3-yl)-N^7-(3-bromophenyl)heptanediamide], in assay [1], the “Relative Activity, I” value is listed as 79.5; the Group result was “C (C (50 < I < 100 included))”; the “Inhibition of MEF2D/HDAC4 interactions (in words)” value was “mild inhibitory effect”. For the same molecule, in the assay with Nalm-6 leukemia cells, the “Nalm-6 leukemia cell growth inhibition (in words)” value is “mild inhibitory effect” and the IC50 was above 10 µM.

Turning to `Nc1ccccc1NC(=O)CCCCCNC(=O)c1ccc(Br)cc1` [CC5, N-(6-((2-aminophenyl)amino)-6-oxohexyl)-4-bromobenzamide], in assay [1], the “Relative Activity, I” value was found to be 3.6; inhibition was half-maximal at 0.07 µM (IC50); the Group entry is listed as “A (A (I < 22 included))”. For the same molecule, the IC50 in the assay on Nalm-6 leukemia cells came to 1.38 µM.

As to `Nc1ccccc1NC(=O)CCCCCC(=O)Nc1ccccc1Br` [CC6, N^1-(2-aminophenyl)-N^7-(2-bromophenyl)heptanediamide], in assay [1], the “Relative Activity, I” value amounted to 62.6; the Group entry is given as “C (C (50 < I < 100 included))”; the “Inhibition of MEF2D/HDAC4 interactions (in words)” value is recorded as “weaker inhibition”. Further, in the assay on Nalm-6 leukemia cells, the “Nalm-6 leukemia cell growth inhibition (in words)” value is on record as “strong growth inhibition” and it took 2.05 µM to reach half-maximal inhibition (IC50).

On to `Nc1ccccc1NC(=O)CCCCCC(=O)Nc1cncc(Br)c1` [CC7, N^1-(2-aminophenyl)-N^7-(5-bromopyridin-3-yl)heptanediamide], for which, in assay [1], the “Relative Activity, I” value turned out to be 5.7; the midpoint of inhibition, the IC50, lay at 0.11 µM; the Group entry was “A (A (I < 22 included))”. The same molecule showed a half-inhibitory concentration (IC50) with Nalm-6 leukemia cells of 1.36 µM.

Values taken from patent publication US9133105B2, “Transcription factor modulators” (C & C BIOPHARMA, LLC, priority 2013, dated 2015).
